Measurements reported in PubChem BioAssay (NCI).
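Method: 48-hour compound exposure of cells in 96-well plates, five concentrations, linear interpolation of endpoints. GI50 marks 50% less growth. TGI: total growth inhibition.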

Legend:
Experiment in all cases: NCI-60 cell line screen, 48 h
IGROV1 ovarian = tested on: IGROV1 ovarian
SK-MEL-2 melanoma = tested on: SK-MEL-2 melanoma
TK-10 renal = tested on: TK-10 renal
UACC-257 melanoma = tested on: UACC-257 melanoma
HL-60(TB) leukemia = tested on: HL-60(TB) leukemia
COLO 205 colon = tested on: COLO 205 colon
K-562 leukemia = tested on: K-562 leukemia
RPMI-8226 leukemia = tested on: RPMI-8226 leukemia
HOP-92 NSCLC = tested on: HOP-92 NSCLC
MDA-MB-231 breast = tested on: MDA-MB-231 breast

Row | SMILES | GI50 (IGROV1 ovarian) [µM] | TGI (IGROV1 ovarian) [µM] | GI50 (SK-MEL-2 melanoma) [µM] | TGI (SK-MEL-2 melanoma) [µM] | GI50 (TK-10 renal) [µM] | TGI (TK-10 renal) [µM] | GI50 (UACC-257 melanoma) [µM] | TGI (UACC-257 melanoma) [µM] | GI50 (HL-60(TB) leukemia) [µM] | TGI (HL-60(TB) leukemia) [µM] | GI50 (COLO 205 colon) [µM] | TGI (COLO 205 colon) [µM] | GI50 (K-562 leukemia) [µM] | TGI (K-562 leukemia) [µM] | GI50 (RPMI-8226 leukemia) [µM] | TGI (RPMI-8226 leukemia) [µM] | GI50 (HOP-92 NSCLC) [µM] | TGI (HOP-92 NSCLC) [µM] | GI50 (MDA-MB-231 breast) [µM] | TGI (MDA-MB-231 breast) [µM]
1 | COc1cc(/C=N/NC(=O)c2cnn3c2NC(c2ccccc2)C3)ccc1OCc1ccccc1 (stereo not drawn) | 0.992 | 7.26 | 1.32 | 7.09 | 1.76 | 5.94 | 1.46 | 11 | 0.328 | 7.54 | 0.953 | 4.22 | 0.293 | 15.3 | 0.955 | 23.6 | 1.48 | 5.77 | 2.17 | 9.39
2 | CN(N=O)c1ccc(/C=C/c2ccnc3ccccc23)cc1 | – | > 100 | – | > 100 | – | > 100 | – | > 100 | – | > 100 | – | > 100 | – | > 100 | – | – | – | > 100 | – | > 100
3 | Cc1ccc(C)c(N2CCN(c3ccncc3N)CC2)c1 | 23.9 | > 100 | 15.6 | 31.2 | 16.7 | 49.8 | 14.4 | 34.6 | 15.9 | 54.9 | 13.8 | 27.1 | 8.67 | 57.1 | 11.7 | 35.5 | 12.3 | 46.2 | 14.3 | 36.9
4 | Cc1cnc(C(=O)Nc2nc3ccc(S(=O)(=O)Nc4ccc(C(C)(C)C)cc4)cc3[nH]2)cn1 | 0.776 | 12.3 | 1.26 | 17.3 | 2.53 | 15.2 | 2.39 | 22.7 | 0.304 | 1.07 | 0.503 | 7.74 | 0.314 | 5.71 | 0.47 | 12.4 | 0.553 | 7.24 | 1.41 | 10.7
5 | Nc1nc(N)c(CCCCc2ccc([N+](=O)[O-])cc2)c(N)n1 | – | > 100 | – | > 100 | – | > 100 | – | > 100 | – | > 100 | – | > 100 | – | > 100 | – | > 100 | – | > 100 | – | > 100
6 | COc1ccc2c(c1O)[C@@]13CCCC=C1[C@@H](C2)N(C)CC3 | – | > 100 | – | > 100 | – | > 100 | – | > 100 | – | > 100 | – | > 100 | – | > 100 | – | > 100 | – | > 100 | – | > 100
7 | COc1cc2c3c(c4ccc(O)cc4c2cc1OC)[C@@H](O)[C@@H]1CCCN1C3 | – | 0.00965 | – | 0.00429 | – | 0.00649 | – | 0.0588 | – | 4.74 | – | 0.145 | – | – | – | 0.00384 | – | 0.0191 | – | 0.0078
8 | O=C1c2ccccc2C(=O)c2c1ccc1c3ccccc3n(-c3ccccc3)c21 | – | 41 | – | 46.8 | – | 60.1 | – | 41.7 | – | 8.47 | – | 34.2 | – | 29.8 | – | 25.8 | – | 11.7 | – | 77.7
9 | O=C(NCCN1CCOCC1)c1cc2c(Oc3ccc(NC(=O)C4(C(=O)Nc5ccc(F)cc5)CC4)cc3)ccnc2[nH]1 | 2.32 | > 100 | 9.19 | 22.9 | 7.56 | 41 | 5.14 | 19.5 | 15.2 | 47 | 4.48 | > 48.7 | 4.27 | 42.2 | 9.45 | 42.2 | 1.82 | 16.5 | 8.4 | 30.7
